Like-named read-outs stand apart in the source and are kept apart here.
Assays:
Type in all cases: biochemical
human cathepsin K = molecular target: T1, human cathepsin K (Homo sapiens, UniProt P43235); assay: Cathepsin K inhibition assay, human recombinant enzyme, fluorogenic substrate Cbz-Phe-Arg-AMC; details: read-out: h Cat K IC50
T1 construct: The proform of cathepsin K was converted to mature cathepsin K by brief exposure to pH 4; made in house; host or cells: baculovirus; Trichoplusia ni High Five cells (virus raised in Sf-9)
T1 sequence (P43235 115-329): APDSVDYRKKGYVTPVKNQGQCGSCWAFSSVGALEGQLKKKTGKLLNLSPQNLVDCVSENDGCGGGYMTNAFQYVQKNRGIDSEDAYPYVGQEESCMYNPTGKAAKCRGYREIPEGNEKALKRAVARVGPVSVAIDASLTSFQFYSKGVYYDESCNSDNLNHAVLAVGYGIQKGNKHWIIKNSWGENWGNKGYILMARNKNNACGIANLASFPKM
Outline: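 Recombinant human cathepsin K (baculovirus/insect-cell proform, activated at pH 4 with 5 mM L-cysteine) assayed with 10 μM Cbz-Phe-Arg-AMC, 10% DMSO, 30 °C.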

human cathepsin L = human cathepsin L (Homo sapiens, UniProt P07711); assay: Cathepsin L inhibition assay, enzyme from human liver tissue, Cbz-Phe-Arg-AMC; details: Table 2, human cathepsin L; read-out: h Cat L IC50
Chain of human cathepsin L (P07711 114-333): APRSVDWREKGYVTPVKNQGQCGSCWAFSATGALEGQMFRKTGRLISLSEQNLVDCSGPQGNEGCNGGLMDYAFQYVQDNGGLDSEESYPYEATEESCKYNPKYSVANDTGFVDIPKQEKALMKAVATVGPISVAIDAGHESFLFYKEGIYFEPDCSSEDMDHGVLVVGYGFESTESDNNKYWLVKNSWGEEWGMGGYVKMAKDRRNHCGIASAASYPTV
Protocol: (§1) All assays for cathepsin K were carried out with human and rat recombinant enzyme. Assays for cathepsins S ? V were also carried out with human recombinant enzyme. Assays for human cathepsins B, H, and L were carried out with enzyme, purchased from Athens Research and Technology, Inc., prepared from human liver tissue. Standard assay conditions for the determination of kinetic constants used a fluorogenic peptide substrate, typically (5S,8S)-13-amino-5-benzyl-13-imino-3-methylene-N-(4-methyl-2-oxo-2H-chromen-7-yl)-6-oxo-1-phenyl-2-oxa-4,7,12triazatridecane-8-carboxamide (Cbz-Phe-Arg-AMC), and were determined in 100 mM sodium acetate at pH 5.5 containing 10 mM dithiothreitol and 120 mM sodium chloride. […]
(§2) All assays contained 10% dimethyl sulfoxide. […] Product fluorescence (excitation at 360 nm; emission at 440 nm, (except cathepsin H which used excitation at 340 nm; emission at 420 nm)) was monitored with a PerSeptive Biosystems Cytofluor II fluorescence plate reader. […]
(§3) Potential inhibitors were evaluated using the progress curve method. […] For those compounds whose progress curves were linear, the enzymatic activity (RATE) was plotted against the concentration of test compound, including inhibitor concentration of zero ([I]=0), and the IC50 determined from a fit of equation 1 to the data, RATE=Vmax/(1+([I]/IC50)) (1) where Vmax is the best fit estimate of the maximal enzymatic activity. […]

human cathepsin V = human cathepsin V (Homo sapiens, UniProt O60911); assay: Cathepsin V inhibition assay, human recombinant enzyme, Cbz-Phe-Arg-AMC; details: Table 2, human cathepsin V; read-out: h Cat V IC50
Chain of human cathepsin V (O60911 114-334): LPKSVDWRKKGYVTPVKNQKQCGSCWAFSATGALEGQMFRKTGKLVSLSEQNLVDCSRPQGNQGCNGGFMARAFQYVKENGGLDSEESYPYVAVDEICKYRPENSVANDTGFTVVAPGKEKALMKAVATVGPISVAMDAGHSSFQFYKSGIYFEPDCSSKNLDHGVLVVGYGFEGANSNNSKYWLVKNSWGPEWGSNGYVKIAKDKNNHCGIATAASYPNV
Protocol: as §1, §2, §3

human cathepsin H = human cathepsin H (Homo sapiens, UniProt P09668); assay: Cathepsin H inhibition assay, enzyme from human liver tissue, L-Arg-β-naphthalamide; details: Table 2, human cathepsin H; read-out: h Cat H IC50
Chain of human cathepsin H (P09668 116-335 limits assumed, other chains not shown): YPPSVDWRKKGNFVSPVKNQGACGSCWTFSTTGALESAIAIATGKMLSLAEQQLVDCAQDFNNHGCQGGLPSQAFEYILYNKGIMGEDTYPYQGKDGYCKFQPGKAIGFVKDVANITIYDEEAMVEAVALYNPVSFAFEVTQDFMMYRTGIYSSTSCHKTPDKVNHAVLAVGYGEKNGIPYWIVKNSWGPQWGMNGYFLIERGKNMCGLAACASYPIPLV
Protocol: as §1, §2, §3

Row | IC50 (human cathepsin K; Table 1, human cathepsin K) | IC50 (human cathepsin K; Table 2, human cathepsin K) | IC50 (human cathepsin L) | IC50 (human cathepsin V) | IC50 (human cathepsin H) | Compound
1 | 0.1 to 1 nM | 0.1 to 1 nM | 100 to 1000 nM | 10 to 100 nM | 100 to 1000 nM | CCCC[C@H](NC(=O)O[C@@H]1CN(C(=O)Nc2ccc(C(F)(F)F)cc2)CC1(C)C)C(=O)C(=O)Nc1ccn[nH]1 [Example 71, (3S)-4,4-dimethyl-1-{[4-(trifluoromethyl)anilino]carbonyl}pyrrolidinyl (1S)-1-[oxo(1H-pyrazol-5-ylamino)acetyl]pentylcarbamate]
2 | 0.1 to 1 nM | 0.1 to 1 nM | 100 to 1000 nM | 10 to 100 nM | 100 to 1000 nM | CCCC[C@H](NC(=O)O[C@@H]1CN(c2nnc(C(F)(F)F)s2)CC1(C)C)C(=O)C(=O)Nc1ccn[nH]1 [Example 82, (3S)-4,4-Dimethyl-1-[5-(trifluoromethyl)-1,3,4-thiadiazol-2-yl]pyrrolidinyl-(1S)-1-[oxo(1H-pyrazol-5-ylamino)acetyl]pentylcarbamate]
